Results from ChEMBL document CHEMBL6083276, “Pan-Transcriptional Enhanced Associated Domain Palmitoylation Pocket Covalent Inhibitor” (J Med Chem, 2024).
Activity calls are given as the source filed them. The calls are words filed in the database; no cut-off is given here.

Assays:
NCI-H226 [1] = test: Cytotoxicity against human NCI-H226 cells assessed as reduction in cell viability incubated for 144 hrs by CellTiter-Glo luciferase assay; assay type: functional, cell-based; settings: NCI-H226, 144 h
[2] = Inhibition of palmitoylation site of TEAD (unknown origin) in human Hippo Pathway/TEAD Luciferase reporter MCF7 cells assessed as reduction in transcriptional activation by measuring luciferase activity incubated for 24 hrs by Promega One-Glo luciferase reagent based assay; assay type: cell-based, Hippo Pathway/TEAD Luciferase reporter MCF7 cell; settings: MCF7, 24 h
[3] = Metabolic stability in human liver microsomes assessed as parent compound remaining measured after 15 mins by LC-MS/MS analysis; assay type: ADME, Microsome; settings: read-out: Stability
[4] = Half-life in mouse at 10 mg/kg, po measured after 24 hrs by LC-MS/MS analysis; assay type: ADME, organism-based; settings: in vivo
[5] = AUClast in mouse at 10 mg/kg, po measured after 24 hrs by LC-MS/MS analysis; assay type: ADME, organism-based; settings: in vivo
[6] = Metabolic stability in mouse liver microsomes assessed as parent compound remaining measured after 15 mins by LC-MS/MS analysis; assay type: ADME, Microsome; settings: read-out: Stability
[7] = molecular target: Transcriptional enhancer factor TEF-1 (Homo sapiens) (UniProt P28347); test: Inhibition of Myc-tagged TEAD1 (unknown origin) palmitoylation transfected in HEK293 cells at 300 nM incubated for 24 hrs by palmitoylation assay; assay type: cell-based
[8] = Tmax in mouse at 10 mg/kg, po measured after 24 hrs by LC-MS/MS analysis; assay type: ADME, organism-based; settings: in vivo
NCI-H226 [9] = test: Inhibition of CTGF gene expression in human NCI-H226 cells at 300 nM incubated for 24 hrs by RT-qPCR analysis; assay type: functional, cell-based
[10] = Cmax in mouse at 10 mg/kg, po measured after 24 hrs by LC-MS/MS analysis; assay type: ADME, organism-based; settings: in vivo
NCI-H226 [11] = test: (§1) Inhibition of CYR61 gene expression in human NCI-H226 cells at 30 nM incubated for 24 hrs by RT-qPCR analysis relative to control; assay type: functional
NCI-H226 [12] = test: Inhibition of CYR61 gene expression in human NCI-H226 cells at 300 nM incubated for 24 hrs by RT-qPCR analysis; assay type: functional, cell-based
[13] = Metabolic stability in human liver microsomes assessed as parent compound remaining measured after 30 mins by LC-MS/MS analysis; assay type: ADME, Microsome; settings: read-out: Stability
[14] = Metabolic stability in mouse liver microsomes assessed as parent compound remaining measured after 30 mins by LC-MS/MS analysis; assay type: ADME, Microsome; settings: read-out: Stability
[15] = Selectivity index, ratio of IC50 for human NCI-H28 cells to IC50 for human NCI-H226 cells
HEK293 = test: Cytotoxicity against HEK293 cells assessed as reduction in cell viability at 0.1 to 1 uM incubated for 12 to 48 hrs; assay type: toxicity, cell-based; settings: human, hek293, 1 µM; dose lower 0.1 µM, time lower 12 hrs, dose upper 1 µM, time upper 48 hrs
[16] = Toxicity in mouse xenografted with human NCI-H226 cells assessed as body weight loss at 10 to 30 mg/kg, po administered for 28 days; assay type: organism-based; settings: in vivo, 672 h, dose 10-30 mg/kg, time 28 day
NCI-H226 [17] = test: Antitumor activity against human NCI-H226 cells xenografted in mouse assessed as reduction in tumor volume at 10 mg/kg, po administered for 28 days; assay type: functional, organism-based; settings: time 28.0 day
NCI-H226 [18] = test: Antitumor activity against human NCI-H226 cells xenografted in mouse assessed as tumor growth inhibition at 30 mg/kg, po administered for 28 days; assay type: functional, organism-based; settings: time 28.0 day
[19] = MRT in mouse at 10 mg/kg, po measured after 24 hrs by LC-MS/MS analysis; assay type: ADME, organism-based; settings: in vivo
NCI-H226 [20] = test: Cytotoxicity against human NCI-H226 cells assessed as reduction in cell viability at 0.1 to 1 uM incubated for 12 to 48 hrs; assay type: functional, cell-based; settings: dose 0.1-1 µM, time 12-48 hrs
[21] = molecular target: Transcriptional enhancer factor TEF-5 (Homo sapiens) (UniProt Q99594); test: Inhibition of Myc-tagged TEAD3 (unknown origin) palmitoylation transfected in HEK293 cells at 300 nM incubated for 24 hrs by palmitoylation assay; assay type: cell-based
NCI-H226 [22] = test: (§2) Inhibition of CTGF gene expression in human NCI-H226 cells at 30 nM incubated for 24 hrs by RT-qPCR analysis relative to control; assay type: functional
[23] = system: Hippo Pathway/TEAD Luciferase reporter MCF7 cell; test: Inhibition of palmitoylation site of TEAD (unknown origin) in human Hippo Pathway/TEAD Luciferase reporter MCF7 cells assessed as reduction in transcriptional activation by measuring luciferase activity at 1000 nM incubated for 24 hrs by Promega One-Glo luciferase reagent based assay
NCI-H226 [24] = test: Inhibition of CTGF gene expression in human NCI-H226 cells incubated for 24 hrs by RT-qPCR analysis; assay type: functional, cell-based; settings: dose 30-300 nM
NCI-H226 [25] = test: Inhibition of CYR61 gene expression in human NCI-H226 cells incubated for 24 hrs by RT-qPCR analysis; assay type: functional, cell-based; settings: dose 30-300 nM
[26] = as §1; assay type: functional
NCI-H226 [27] = test: Antitumor activity against human NCI-H226 cells xenografted in mouse assessed as tumor growth inhibition at 30 mg/kg, po measured after 17 days; assay type: functional, organism-based; settings: time 17.0 day
[28] = molecular target: Transcriptional enhancer factor TEF-3 (Homo sapiens) (UniProt Q15561); test: Inhibition of Myc-tagged TEAD4 (unknown origin) palmitoylation transfected in HEK293 cells at 300 nM incubated for 24 hrs by palmitoylation assay; assay type: cell-based
NCI-H226 [29] = test: Antitumor activity against human NCI-H226 cells xenografted in mouse assessed as reduction in tumor size at 10 to 30 mg/kg, po measured upto 28 days; assay type: functional, organism-based; settings: dose 10-30 mg/kg, time <= 28.0 day
[30] = molecular target: Transcriptional enhancer factor TEF-4 (Homo sapiens) (UniProt Q15562); test: Inhibition of Myc-tagged TEAD2 (unknown origin) palmitoylation transfected in HEK293 cells at 300 nM incubated for 24 hrs by palmitoylation assay; assay type: cell-based
[31] = as §2; assay type: functional

Transcriptional enhancer factor TEF-5 (Homo sapiens), sequence (Q99594 whole entry): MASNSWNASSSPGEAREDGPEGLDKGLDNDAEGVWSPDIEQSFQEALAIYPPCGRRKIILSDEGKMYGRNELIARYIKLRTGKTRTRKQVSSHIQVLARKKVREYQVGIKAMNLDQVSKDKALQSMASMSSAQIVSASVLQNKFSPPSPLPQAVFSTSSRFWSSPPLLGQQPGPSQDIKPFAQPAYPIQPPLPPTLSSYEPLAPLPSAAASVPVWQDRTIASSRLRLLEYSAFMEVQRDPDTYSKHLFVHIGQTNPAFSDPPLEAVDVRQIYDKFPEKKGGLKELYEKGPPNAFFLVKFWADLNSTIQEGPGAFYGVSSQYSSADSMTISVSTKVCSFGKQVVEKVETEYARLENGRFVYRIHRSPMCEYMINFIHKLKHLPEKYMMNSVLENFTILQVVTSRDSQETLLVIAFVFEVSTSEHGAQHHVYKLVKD
Transcriptional enhancer factor TEF-1 (Homo sapiens), sequence (P28347 whole entry): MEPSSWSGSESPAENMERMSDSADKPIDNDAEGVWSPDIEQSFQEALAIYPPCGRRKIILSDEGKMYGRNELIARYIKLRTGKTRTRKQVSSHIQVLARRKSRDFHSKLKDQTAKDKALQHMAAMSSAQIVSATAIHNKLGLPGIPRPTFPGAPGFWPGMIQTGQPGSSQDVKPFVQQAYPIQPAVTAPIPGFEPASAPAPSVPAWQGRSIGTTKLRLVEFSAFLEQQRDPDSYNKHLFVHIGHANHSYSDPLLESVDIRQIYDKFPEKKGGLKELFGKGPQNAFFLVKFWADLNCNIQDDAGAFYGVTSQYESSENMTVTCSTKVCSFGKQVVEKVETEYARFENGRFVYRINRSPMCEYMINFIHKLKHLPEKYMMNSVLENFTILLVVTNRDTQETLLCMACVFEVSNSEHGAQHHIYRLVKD
Transcriptional enhancer factor TEF-3 (Homo sapiens), sequence (Q15561 whole entry): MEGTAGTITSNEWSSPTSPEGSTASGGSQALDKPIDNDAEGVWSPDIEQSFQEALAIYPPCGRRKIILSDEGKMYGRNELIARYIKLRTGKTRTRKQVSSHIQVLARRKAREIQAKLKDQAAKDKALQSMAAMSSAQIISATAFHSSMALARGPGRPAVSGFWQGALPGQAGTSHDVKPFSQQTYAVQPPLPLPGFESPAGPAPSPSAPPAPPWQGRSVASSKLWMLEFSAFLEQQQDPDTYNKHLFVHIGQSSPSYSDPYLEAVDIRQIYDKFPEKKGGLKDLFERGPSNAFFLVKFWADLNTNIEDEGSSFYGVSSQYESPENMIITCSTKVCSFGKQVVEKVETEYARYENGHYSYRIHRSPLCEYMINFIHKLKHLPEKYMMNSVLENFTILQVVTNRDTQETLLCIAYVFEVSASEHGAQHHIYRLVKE
Transcriptional enhancer factor TEF-4 (Homo sapiens), sequence (Q15562 whole entry): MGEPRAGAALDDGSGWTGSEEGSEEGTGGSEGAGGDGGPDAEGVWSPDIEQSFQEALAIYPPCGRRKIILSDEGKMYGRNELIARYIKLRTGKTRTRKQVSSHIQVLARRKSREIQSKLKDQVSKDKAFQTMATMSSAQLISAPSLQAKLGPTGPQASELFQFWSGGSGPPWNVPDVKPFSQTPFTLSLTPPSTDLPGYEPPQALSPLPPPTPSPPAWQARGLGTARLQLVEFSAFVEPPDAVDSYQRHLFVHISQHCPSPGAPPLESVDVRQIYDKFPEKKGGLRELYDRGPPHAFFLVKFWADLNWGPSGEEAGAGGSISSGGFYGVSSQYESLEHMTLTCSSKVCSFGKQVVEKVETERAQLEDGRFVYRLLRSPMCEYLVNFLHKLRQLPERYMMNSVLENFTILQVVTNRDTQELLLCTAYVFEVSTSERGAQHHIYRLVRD

SMILES: C[C@H](NC(=O)c1ccc2c(-c3ccc(C(F)(F)F)cc3)cccc2c1)c1ccccn1
- IC50 (NCI-H226 [1]): 27.1 nM
- IC50 [2]: 1.9 nM

SMILES: C=CC(=O)N1CCc2ccc(-c3ccc(OC(F)(F)F)cc3)cc2C1
- IC50 (NCI-H226 [1]): 22.2 nM
- IC50 [2]: 0.7 nM

SMILES: CCC(=O)N1CCc2ccc(-c3ccc(C(F)(F)F)cc3)cc2C1
- IC50 [2]: 1510 nM

SMILES: C=C(F)C(=O)N1CCc2ccc(-c3ccc(C(F)(F)F)cc3)cc2C1
- remaining at 0.25 h [3]: 98.2%
- half-life [4]: 5.62 h
- AUC(0-t) at 24 h [5]: 5410 ng·h/mL
- remaining at 0.25 h [6]: 89.2%
- inhibition [7]: Active
- Tmax [8]: 0.75 h
- inhibition (NCI-H226 [9]): Active
- Cmax [10]: 1390 ng/mL
- IC50 (NCI-H226 [1]): 30.9 nM
- inhibition (NCI-H226 [11]): inactive
- inhibition (NCI-H226 [12]): Active
- remaining at 0.5 h [13]: 97.7%
- remaining at 0.5 h [14]: 85.1%
- Ratio IC50 [15]: >20
- IC50 [2]: 1.34 nM
- Activity (HEK293): Non-toxic
- Activity [16]: Non-toxic
- Activity (NCI-H226 [17]): Active; Modest Effect Observed
- Activity (NCI-H226 [18]): Active
- MRT [19]: 7.5 h
- Activity (NCI-H226 [20]): inactive
- inhibition [21]: Active
- inhibition (NCI-H226 [22]): inactive

SMILES: C=CC(=O)N1CCc2ccc(-c3cccc(C(F)(F)F)c3)cc2C1
- IC50 (NCI-H226 [1]): 85.2 nM
- IC50 [2]: 0.88 nM

SMILES: C=CC(=O)N1CCc2ccc(-c3ccc(C(F)(F)F)c(F)c3)cc2C1
- IC50 (NCI-H226 [1]): 115 nM
- IC50 [2]: 0.36 nM

SMILES: C=CC(=O)N1CCc2ccc(-c3ccccc3)cc2C1
- IC50 (NCI-H226 [1]): 7.04 nM
- IC50 [2]: 3.15 nM

SMILES: C=CC(=O)N1CCc2ccc(-c3ccc(C(F)(F)F)nc3)cc2C1
- IC50 (NCI-H226 [1]): 391 nM
- IC50 [2]: 5.48 nM

SMILES: C=CC(=O)N1CCc2ccc(-c3ccc(F)cc3)cc2C1
- IC50 (NCI-H226 [1]): 21.6 nM
- IC50 [2]: 0.84 nM

SMILES: CN(C)C/C=C/C(=O)N1CCc2ccc(-c3ccc(C(F)(F)F)cc3)cc2C1
- inhibition (NCI-H226 [12]): Active; Minimal Inhibition Observed
- inhibition [23]: Active; Incomplete Inhibition Observed
- IC50 [2]: 0.65 nM
- inhibition (NCI-H226 [24]): Dose-dependent-effect

SMILES: C=CC(=O)N1CCc2ccc(-c3ccc(C(F)(F)F)cn3)cc2C1
- IC50 (NCI-H226 [1]): 26.6 nM
- IC50 [2]: 4.11 nM

SMILES: C=CC(=O)N1CCc2ccc(-c3ccc(C(F)(F)F)cc3)cc2C1
- remaining at 0.25 h [3]: 95.9%
- half-life [4]: 3.06 h
- inhibition (NCI-H226 [25]): Dose-dependent-effect
- AUC(0-t) at 24 h [5]: 3810 ng·h/mL
- remaining at 0.25 h [6]: 75.9%
- inhibition [7]: Active
- Tmax [8]: 1.12 h
- inhibition (NCI-H226 [9]): Active; Higher Inhibition Observed
- Cmax [10]: 974 ng/mL
- IC50 (NCI-H226 [1]): 3.34 nM
- inhibition at 0.03 µM [26]: > 50%
- inhibition (NCI-H226 [12]): Active; Higher Inhibition Observed
- remaining at 0.5 h [13]: 79.6%
- Activity (NCI-H226 [27]): Active; Compound Showed Sustain Suppression Without Rebound
- inhibition [28]: Active
- remaining at 0.5 h [14]: 62.7%
- Ratio IC50 [15]: >150
- IC50 [2]: 0.34 nM
- inhibition (NCI-H226 [24]): Dose-dependent-effect
- Activity (HEK293): Non-toxic
- Activity [16]: Non-toxic
- Activity (NCI-H226 [29]): Active
- inhibition [30]: Active
- MRT [19]: 6.08 h
- Activity (NCI-H226 [20]): inactive
- inhibition [21]: Active
- inhibition at 0.03 µM [31]: > 50%

SMILES: C=CC(=O)N1CCc2ccc(-c3ccc(C(F)(F)F)cc3Cl)cc2C1
- IC50 (NCI-H226 [1]): 119 nM
- IC50 [2]: 1.04 nM

SMILES: C=CC(=O)N1CCc2ccc(-c3ccc(C)cc3)cc2C1
- IC50 (NCI-H226 [1]): 3.03 nM
- IC50 [2]: 4.26 nM

SMILES: C=CC(=O)N1CCc2ccc(-c3cccs3)cc2C1
- IC50 (NCI-H226 [1]): 402 nM
- IC50 [2]: 5.36 nM

SMILES: C=CC(=O)Nc1ccc(C)c(Oc2ccc(Cl)cc2)c1
- remaining at 0.25 h [3]: 77.6%
- remaining at 0.25 h [6]: 26.4%
- IC50 (NCI-H226 [1]): 10.6 nM
- remaining at 0.5 h [13]: 63.5%
- remaining at 0.5 h [14]: 9.7%
- IC50 [2]: 0.61 nM

SMILES: CC#CC(=O)N1CCc2ccc(-c3ccc(C(F)(F)F)cc3)cc2C1
- IC50 [2]: 52.4 nM
